The target in data set [1] is T1, TREK-2 (Homo sapiens, UniProt P57789).
T1 sequence (P57789 1-538): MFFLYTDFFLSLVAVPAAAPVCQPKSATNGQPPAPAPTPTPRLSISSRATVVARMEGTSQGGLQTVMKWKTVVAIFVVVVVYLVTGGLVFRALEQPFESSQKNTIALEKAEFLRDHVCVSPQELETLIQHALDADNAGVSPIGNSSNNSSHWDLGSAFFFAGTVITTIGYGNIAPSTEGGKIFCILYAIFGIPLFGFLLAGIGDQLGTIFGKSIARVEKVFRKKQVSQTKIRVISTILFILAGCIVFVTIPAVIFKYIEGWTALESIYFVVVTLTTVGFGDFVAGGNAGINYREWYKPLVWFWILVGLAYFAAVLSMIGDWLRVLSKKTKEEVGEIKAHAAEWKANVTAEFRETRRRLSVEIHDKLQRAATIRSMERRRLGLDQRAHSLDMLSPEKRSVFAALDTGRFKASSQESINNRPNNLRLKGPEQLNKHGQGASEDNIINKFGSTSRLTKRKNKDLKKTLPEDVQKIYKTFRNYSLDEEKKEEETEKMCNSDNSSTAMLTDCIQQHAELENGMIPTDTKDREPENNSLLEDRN
Put plainly: manual patch clamp (MPC) assay, TREK-2, species not stated. The data set is classed as cell-based. On the technique in general: The patch-clamp technique gives a direct electrical read-out from membranes.

The next data set deals with Neuropeptide Y Y2 (Homo sapiens, UniProt P49146). The data set is described as follows: Eurofins Lead Profiling radioligand binding. The note with it: title: 30 μM.
The next data set addresses Interleukin IL-1 R1 (Mus musculus, UniProt P13504). Put plainly: Eurofins Lead Profiling radioligand binding. The following applies: title: 30 μM.
The subject of another data set is TWIK-2. Put plainly: human 86Rb flux K2P selectivity panel. In kind it is cell-based. The following applies: 86Rb flux K2P panel.
The next data set deals with TASK-3. Put plainly: human 86Rb flux K2P selectivity panel. The following applies: 86Rb flux K2P panel. The data set is classed as cell-based.
Data set [2] concerns the target Nicotinic Acetylcholine α1, Bungarotoxin (Homo sapiens, UniProt P02708+P07510+Q07001). Put plainly: Eurofins Lead Profiling radioligand binding. The note with it: read-out: % Inhibition at 10 µM.
The test system of a further data set is TASK-2. Put plainly: human 86Rb flux K2P selectivity panel. The data set is classed as cell-based. The note with it: 86Rb flux K2P panel.
The test system of data set [3] is Glutamate, NMDA, Phencyclidine. The data set is described as follows: Eurofins Lead Profiling radioligand binding. On the set-up: species or system Rat. The note with it: title: 30 μM.
The next data set addresses Sigma σ1 (Homo sapiens, UniProt Q99720). The data set is described as follows: Eurofins Lead Profiling radioligand binding. The note with it: title: 30 μM.
In a further data set the target is Prostanoid EP4 (Homo sapiens, UniProt P35408). The data set is described as follows: Eurofins Lead Profiling radioligand binding. The following applies: title: 30 μM.
The target in data set [4] is T1, TREK-2. Put plainly: human 86Rb flux K2P selectivity panel. In kind it is cell-based.
For another data set, the target named is Muscarinic M1 (Homo sapiens, UniProt P11229). The data set is described as follows: Eurofins Lead Profiling radioligand binding. The note with it: title: 30 μM.
For a further data set, the target named is T2, TRESK (Homo sapiens, UniProt Q7Z418).
T2 sequence (Q7Z418 1-384): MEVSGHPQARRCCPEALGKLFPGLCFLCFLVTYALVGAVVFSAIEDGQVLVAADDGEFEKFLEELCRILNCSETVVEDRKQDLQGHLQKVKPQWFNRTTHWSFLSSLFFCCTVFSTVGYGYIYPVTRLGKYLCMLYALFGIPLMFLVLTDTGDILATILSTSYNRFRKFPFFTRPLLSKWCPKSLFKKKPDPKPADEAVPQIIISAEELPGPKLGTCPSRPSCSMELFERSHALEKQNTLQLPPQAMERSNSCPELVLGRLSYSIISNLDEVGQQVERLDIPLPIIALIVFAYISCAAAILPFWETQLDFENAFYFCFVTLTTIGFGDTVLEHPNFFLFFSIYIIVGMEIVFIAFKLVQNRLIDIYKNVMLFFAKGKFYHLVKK
The data set is described as follows: human 86Rb flux K2P selectivity panel. The note with it: 86Rb flux K2P panel; for activity at TRESK: data is not shown. The data set is classed as cell-based.

Data set [5] is described as follows: mouse PO PK study (C57BL/6). In kind it is in vivo. The following applies: 3 mg/kg PO; for concentration at 2 h: C57BL/6, mouse, po. The protocol: Plasma and brain tissue samples originating from in vivo studies were analyzed by electrospray ionization using an AB Sciex Q-TRAP 5500 (Foster City, CA) that was coupled to a Shimadzu LC-20AD pump (Columbia, MD) and a Leap Technologies CTC PAL auto-sampler (Carrboro, NC). Analytes were separated by gradient elution using a C18 column (3 x 50 mm, 3 mm; Fortis Technologies Ltd, Cheshire, UK) that was thermostated at 40 °C. HPLC mobile phase A was 0.1% formic acid in water (pH unadjusted); mobile phase B was 0.1% formic acid in acetonitrile (pH […]
min, with an isocratic hold for 0.5 min, before transitioning to 10% B over 0.05 min. The column was re-equilibrated (1 min) before the next sample injection. The total run time was 2.55 min, and the HPLC flow rate was 0.5 ml/min. The source temperature was set at 500 °C, and mass spectral analyses were performed using a Turbo-Ion spray source in positive ionization mode (5.0-kV spray voltage) and using multiple-reaction monitoring of transitions specific for the analytes. All data were analyzed using AB Sciex Analyst 1.5.1 software.
Brain plasma concentration ratio (Kp) was calculated by dividing brain concentration by plasma concentration for each animal. Unbound brain to unbound plasma concentration ratio (Kp,uu) is calculated using the following formula: Kp,uu = (Brain ng/g x brain fu)/(plasma ng/ml x plasma fu).
For determination of the plasma concentration-time profile, compounds were formulated in methyl cellulose and administered as a 3 mg/kg PO dose to male C57BL/6 mouse or SD rat (n = 2). For the same determination, compounds were formulated in HP-β-CD and administered as a 0.1 mg/kg IV dose to male beagle dog (n = 2).
Plasma samples originating from in vivo studies were analyzed by electrospray ionization using a Q-TRAP 5500 (AB Sciex) that was coupled to a Prominence UFLC XR (Shimadzu Corporation).
Analytes were separated by gradient elution using a Shim-pack XR-ODS II (2 x 75 mm, 2.2μm, Shimadzu Corporation) that was thermostated at 40 °C. HPLC mobile phase A was 5 mM ammonium acetate containing 0.2% formic acid in water (pH unadjusted); mobile phase B was […]
hold for 1.5 min, before transitioning to 10% B over 0.1 min. The column was re-equilibrated (0.9 min) before the next sample injection. The total run time was 4.0 min, and the HPLC flow rate was 0.5 ml/min. The source temperature was set at 600 °C, and mass spectral analyses were performed using a Turbo-Ion spray source in positive ionization mode and using multiple-reaction

The structures appear in SMILES notation. “And” between values parts separate entries of the source, which are not always exact repeats. Equal values may be shown once. “Also recorded” adds a separate entry of the source. Read-outs that look alike come from different tables or passages of the source.

Chain of Prostanoid EP4 (P35408 whole entry): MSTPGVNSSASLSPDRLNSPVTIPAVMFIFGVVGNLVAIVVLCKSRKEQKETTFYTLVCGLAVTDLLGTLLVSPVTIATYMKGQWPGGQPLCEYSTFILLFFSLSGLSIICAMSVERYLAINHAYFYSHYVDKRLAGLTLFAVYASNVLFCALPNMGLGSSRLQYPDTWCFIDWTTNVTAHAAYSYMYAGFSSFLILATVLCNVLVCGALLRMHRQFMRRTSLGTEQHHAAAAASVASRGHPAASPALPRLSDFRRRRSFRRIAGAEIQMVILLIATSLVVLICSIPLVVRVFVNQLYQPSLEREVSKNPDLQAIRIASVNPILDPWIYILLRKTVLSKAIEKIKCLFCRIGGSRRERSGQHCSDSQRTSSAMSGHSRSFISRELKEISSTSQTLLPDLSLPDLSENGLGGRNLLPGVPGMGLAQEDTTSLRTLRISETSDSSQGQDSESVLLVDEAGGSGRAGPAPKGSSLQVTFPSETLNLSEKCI
Chain of Interleukin IL-1 R1 (P13504 20-576): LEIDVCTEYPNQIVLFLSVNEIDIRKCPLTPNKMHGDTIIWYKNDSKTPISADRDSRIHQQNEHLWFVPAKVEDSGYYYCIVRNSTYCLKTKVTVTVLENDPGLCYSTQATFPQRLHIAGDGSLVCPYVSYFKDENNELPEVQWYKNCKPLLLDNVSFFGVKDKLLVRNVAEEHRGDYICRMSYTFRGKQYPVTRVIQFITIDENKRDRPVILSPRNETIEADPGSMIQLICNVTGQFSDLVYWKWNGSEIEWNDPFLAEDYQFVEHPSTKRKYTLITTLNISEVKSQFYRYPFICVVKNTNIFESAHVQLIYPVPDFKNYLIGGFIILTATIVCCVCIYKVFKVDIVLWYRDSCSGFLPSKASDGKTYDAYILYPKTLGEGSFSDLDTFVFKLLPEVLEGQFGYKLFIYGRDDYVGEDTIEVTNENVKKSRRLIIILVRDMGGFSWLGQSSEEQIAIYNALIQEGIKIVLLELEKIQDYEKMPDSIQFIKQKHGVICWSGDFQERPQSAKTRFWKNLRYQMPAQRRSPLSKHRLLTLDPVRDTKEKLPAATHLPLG
Chain of Nicotinic Acetylcholine α1, Bungarotoxin (Q07001 22-517): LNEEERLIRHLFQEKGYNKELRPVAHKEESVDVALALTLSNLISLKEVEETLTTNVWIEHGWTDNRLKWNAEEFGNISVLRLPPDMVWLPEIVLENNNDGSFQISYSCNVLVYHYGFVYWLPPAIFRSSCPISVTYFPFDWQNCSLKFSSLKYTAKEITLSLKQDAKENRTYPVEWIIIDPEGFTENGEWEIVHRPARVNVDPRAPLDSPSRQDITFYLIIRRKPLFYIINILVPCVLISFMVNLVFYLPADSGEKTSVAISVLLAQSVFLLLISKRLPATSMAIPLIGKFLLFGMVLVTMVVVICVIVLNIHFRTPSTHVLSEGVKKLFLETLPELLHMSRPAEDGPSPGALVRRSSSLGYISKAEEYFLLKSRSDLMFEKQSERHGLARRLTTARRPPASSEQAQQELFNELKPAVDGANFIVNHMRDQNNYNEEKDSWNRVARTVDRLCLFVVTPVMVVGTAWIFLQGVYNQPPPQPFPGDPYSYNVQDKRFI
Chain of Nicotinic Acetylcholine α1, Bungarotoxin (P07510 23-517): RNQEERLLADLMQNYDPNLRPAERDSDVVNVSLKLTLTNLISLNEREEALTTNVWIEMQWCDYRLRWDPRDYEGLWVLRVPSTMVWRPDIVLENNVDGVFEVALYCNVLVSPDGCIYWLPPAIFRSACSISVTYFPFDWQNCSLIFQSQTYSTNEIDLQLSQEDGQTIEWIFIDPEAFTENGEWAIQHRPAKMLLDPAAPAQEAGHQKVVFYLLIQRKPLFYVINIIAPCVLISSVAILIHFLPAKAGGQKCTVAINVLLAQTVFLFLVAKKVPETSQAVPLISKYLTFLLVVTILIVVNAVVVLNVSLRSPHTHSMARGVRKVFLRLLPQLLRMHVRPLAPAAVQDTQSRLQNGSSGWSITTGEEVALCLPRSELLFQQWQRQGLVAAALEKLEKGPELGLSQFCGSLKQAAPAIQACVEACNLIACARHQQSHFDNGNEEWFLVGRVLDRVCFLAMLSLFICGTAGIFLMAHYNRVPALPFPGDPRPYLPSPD
Chain of Nicotinic Acetylcholine α1, Bungarotoxin (P11230 24-501, further chain): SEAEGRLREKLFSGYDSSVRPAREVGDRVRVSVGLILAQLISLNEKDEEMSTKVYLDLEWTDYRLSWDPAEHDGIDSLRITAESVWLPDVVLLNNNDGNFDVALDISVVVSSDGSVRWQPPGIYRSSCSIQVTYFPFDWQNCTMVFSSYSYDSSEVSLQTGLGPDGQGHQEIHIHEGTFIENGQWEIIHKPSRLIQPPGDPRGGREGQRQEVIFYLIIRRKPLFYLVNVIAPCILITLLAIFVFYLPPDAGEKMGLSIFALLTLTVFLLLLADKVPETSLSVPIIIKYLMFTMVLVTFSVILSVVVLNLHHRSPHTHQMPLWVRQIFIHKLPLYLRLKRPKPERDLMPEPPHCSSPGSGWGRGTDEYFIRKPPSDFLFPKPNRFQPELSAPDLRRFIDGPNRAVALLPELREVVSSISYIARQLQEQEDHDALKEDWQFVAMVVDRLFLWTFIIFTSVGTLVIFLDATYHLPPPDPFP
Chain of Nicotinic Acetylcholine α1, Bungarotoxin (P02708 21-457): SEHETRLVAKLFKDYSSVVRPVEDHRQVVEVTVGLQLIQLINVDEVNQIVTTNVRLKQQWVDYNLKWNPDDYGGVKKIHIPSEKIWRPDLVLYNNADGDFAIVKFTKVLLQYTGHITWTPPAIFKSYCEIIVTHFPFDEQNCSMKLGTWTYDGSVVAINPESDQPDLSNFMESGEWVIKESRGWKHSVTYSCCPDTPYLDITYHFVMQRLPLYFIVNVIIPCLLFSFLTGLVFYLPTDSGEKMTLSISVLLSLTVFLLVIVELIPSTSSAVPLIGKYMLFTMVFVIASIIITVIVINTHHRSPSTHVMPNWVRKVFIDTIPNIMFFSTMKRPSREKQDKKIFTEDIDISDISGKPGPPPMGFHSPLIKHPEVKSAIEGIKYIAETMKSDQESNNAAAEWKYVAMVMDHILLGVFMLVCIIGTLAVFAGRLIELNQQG
Chain of Neuropeptide Y Y2 (P49146 whole entry): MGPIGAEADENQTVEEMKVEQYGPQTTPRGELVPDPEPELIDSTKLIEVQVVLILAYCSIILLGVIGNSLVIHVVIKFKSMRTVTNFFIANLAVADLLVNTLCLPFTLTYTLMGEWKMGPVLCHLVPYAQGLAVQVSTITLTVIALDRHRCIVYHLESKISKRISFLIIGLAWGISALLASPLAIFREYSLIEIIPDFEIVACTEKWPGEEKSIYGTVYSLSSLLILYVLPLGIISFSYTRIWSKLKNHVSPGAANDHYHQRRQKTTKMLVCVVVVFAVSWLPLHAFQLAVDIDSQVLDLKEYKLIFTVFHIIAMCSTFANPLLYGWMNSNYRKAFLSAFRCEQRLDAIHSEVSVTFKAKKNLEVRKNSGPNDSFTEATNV
Chain of Sigma σ1 (Q99720 whole entry): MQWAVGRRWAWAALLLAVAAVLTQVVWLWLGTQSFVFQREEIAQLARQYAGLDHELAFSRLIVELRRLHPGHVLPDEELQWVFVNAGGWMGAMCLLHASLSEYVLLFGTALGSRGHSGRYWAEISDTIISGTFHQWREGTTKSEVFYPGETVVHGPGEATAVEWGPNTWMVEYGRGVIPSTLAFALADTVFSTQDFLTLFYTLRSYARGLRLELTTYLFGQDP
Chain of Muscarinic M1 (P11229 whole entry): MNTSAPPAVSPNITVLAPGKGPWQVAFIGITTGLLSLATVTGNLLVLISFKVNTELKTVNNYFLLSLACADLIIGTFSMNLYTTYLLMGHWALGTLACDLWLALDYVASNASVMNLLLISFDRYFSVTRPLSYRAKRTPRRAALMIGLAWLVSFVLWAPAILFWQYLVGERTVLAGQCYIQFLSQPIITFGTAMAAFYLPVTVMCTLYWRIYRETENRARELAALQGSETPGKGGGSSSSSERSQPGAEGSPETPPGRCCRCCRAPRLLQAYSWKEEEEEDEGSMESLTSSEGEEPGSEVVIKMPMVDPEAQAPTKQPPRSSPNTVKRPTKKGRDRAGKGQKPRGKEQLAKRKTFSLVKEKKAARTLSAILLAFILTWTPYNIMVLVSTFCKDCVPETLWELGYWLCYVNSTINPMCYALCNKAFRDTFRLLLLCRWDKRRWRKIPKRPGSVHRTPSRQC

Take `CS(=O)(=O)Nc1ccc(C(=O)NCc2ccc(Cl)cc2Cl)cc1` [Compound 13]: on TREK-2 [1] (TREK-2 over TREK-1, manual patch clamp), the “selectivity for TREK-2 in MPC assay” value was approximately 8 fold. On TREK-2 [1] (manual patch clamp), the concentration giving a half-maximal response (EC50) was 950 nM and the maximal response (Emax) turned out to be 126%.

For `O=C(NCc1ccc(OC(F)(F)F)cc1F)c1ccc2ncnn2c1` [Compound 19b], the inhibition was -1% on Neuropeptide Y Y2; 9% on Interleukin IL-1 R1; 45% on Sigma σ1; 14% at Prostanoid EP4; 1% at Muscarinic M1. In addition, the “selectivity against TWIK-2 over TREK-2” value in the data set on TWIK-2 is more than 150 fold. The “selectivity against TASK-3 over TREK-2” value with TASK-3 is recorded as more than 150 fold. Also, the inhibition at 10 µM in [2] was found to be 20%. The “selectivity against TASK-2 over TREK-2” value in the data set on TASK-2 is listed as more than 150 fold. In addition, in data set [3], the “% Inhibition at 10 µM” value was determined as 0%. Besides, on TREK-2 [4] (TREK-2 over TREK-1), the “TREK-2 preference in 86Rb flux assay” value was approximately 46 fold. The “activity at TREK-2 in 86Rb flux panel” value at TREK-2 [4] (data is not shown) was “submicromolar activity”. The “selectivity against TRESK over TREK-2” value at TRESK stood at 31 fold. Moreover, the “activity at TRESK” value at TRESK is “micromolar inhibitor activity”. In addition, the total brain concentration in data set [5] (2 h, 3 mg/kg) was approximately 3 µM. For the same compound, the concentration at 2 h in [5] (male, CSF, 3 mg/kg, 2 h, read-out: CSF level) was found to be 220 nM; in [5] (male, brain, 3 mg/kg, 2 h, read-out: free brain level), 920 nM; in [5] (male, brain, 3 mg/kg, 2 h, read-out: total brain concentration), 3200 nM. For the same compound, the Cmax in [5] (male, plasma, C57BL/6 mice) was determined as 10500 nM. In addition, the Tmax in data set [5] (male, plasma, C57BL/6 mice) came to 3.8 h. For the same compound, the half-life in data set [5] (male, plasma, C57BL/6 mice) was 19 h.

For `O=C(NCc1ccc(OC(F)(F)F)cc1Cl)c1ccc2nncn2c1` [Compound 20], in the data set on TWIK-2, the “selectivity against TWIK-2 over TREK-1/2” value was > 91 fold and > 85 fold. For the same compound, in the data set on TASK-3, the “selectivity against TASK-3 over TREK-1/2” value is > 91 fold and > 85 fold. In addition, in the data set with TASK-2, the “selectivity against TASK-2 over TREK-1/2” value is > 91 fold and > 85 fold. Further, the “activity at TRESK” value on TRESK is on record as “micromolar inhibitor activity; also recorded: micromolar inhibitory activity”.

A word on the EC50: it is the midpoint of the concentration-response curve. The low end stands for higher potency in that assay, the high end for lower potency in that assay. By Emax is commonly meant the greatest response seen or fitted, relative to the assay's reference. By inhibition is commonly meant the drop in the measured response relative to a control, in per cent. What is called % Inhibition is how much of the control response was suppressed. A lower % Inhibition goes with little suppression. As usually defined, the Cmax is the maximum level reached in the sampled fluid or tissue. What is called Tmax is the time from dosing to the highest level. Usually half-life stands for the time needed for the level to fall by half in the phase considered. The low end stands for fast loss, the high end for slow loss.

The values above are taken from PMC11887051, “Discovery of ONO-2920632 (VU6011887): A Highly Selective and CNS Penetrant TREK-2 (TWIK-Related K+ Channel 2) Preferring Activator In Vivo Tool Compound” (ACS Chemical Neuroscience, 2025).
